Assay [1] has as its target T1, aldosterone synthase (CYP11B2) (Rattus norvegicus, UniProt P30099).
T1 construct: from tissue; host or cells: live Wistar rat (adrenal gland, zona glomerulosa)
T1 sequence (P30099 35-510): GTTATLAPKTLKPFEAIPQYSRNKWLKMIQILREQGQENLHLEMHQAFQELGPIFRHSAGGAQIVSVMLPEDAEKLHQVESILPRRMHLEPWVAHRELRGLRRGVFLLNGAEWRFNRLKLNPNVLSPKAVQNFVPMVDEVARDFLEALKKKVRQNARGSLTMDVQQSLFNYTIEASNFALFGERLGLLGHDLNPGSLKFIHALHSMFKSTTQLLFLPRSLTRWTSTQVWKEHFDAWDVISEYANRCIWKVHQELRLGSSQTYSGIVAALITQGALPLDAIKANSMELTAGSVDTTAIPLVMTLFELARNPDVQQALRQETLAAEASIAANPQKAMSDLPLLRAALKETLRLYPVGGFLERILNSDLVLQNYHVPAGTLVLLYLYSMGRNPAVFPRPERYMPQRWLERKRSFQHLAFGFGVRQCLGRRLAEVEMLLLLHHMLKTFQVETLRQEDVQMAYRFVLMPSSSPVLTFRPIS
The assay can be described thus: Suppression of plasma aldosterone levels in ACTH-stimulated rats. The following applies: 4 mg/kg p.o., 2 h after dosing vs 1 h before dosing. Type of assay: in vivo, Wistar rats. How it is done:
The target efficacy of the compounds disclosed in the present invention to dose-dependently suppress aldosterone levels in vivo may be assessed with the following protocol:
(§1) Adult male Wistar rats weighing between 250 and 350 grams are kept under the usual 12-hour light and 12-hour dark conditions at a temperature of 23° C.±2° C. On the first day of the experiment, the animals receive a subcutaneous injection of a depot ACTH product in a dose of 1.0 mg/kg weight (SYNACTHEN-Depot, Novartis, Basel, CH) 16 hours prior to the administration of a test compound. […] An alternative method to stimulate aldosterone secretion consists in subjecting rats to a low salt diet for 48 hours and applying the diuretic furosemide at 10 mg/kg by subcutaneous or intraperitoneal administration 16 hours, respectively 2 hours prior to the start of the experiment. […] The aldosterone concentrations of the plasma samples can be determined with a radioimmunoassay as described above for the in vitro test systems. […]
The selective suppression of plasma steroid levels as for instance aldosterone in comparison to corticosterone may serve as a measure for in vivo bioavailability and pharmacodynamic enzyme inhibitory activity of the herein described compounds. The evaluation of the data may occur relative to the application of vehicle or quantitatively by determination of the area under the curve (AUC).

In assay [2] the target is T2, recombinant human Cyp19 enzyme (aromatase) (Homo sapiens, UniProt P11511).
T2 construct: purchased Becton Dickinson Biosciences, San Jose, Calif., USA
T2 sequence (P11511 1-503): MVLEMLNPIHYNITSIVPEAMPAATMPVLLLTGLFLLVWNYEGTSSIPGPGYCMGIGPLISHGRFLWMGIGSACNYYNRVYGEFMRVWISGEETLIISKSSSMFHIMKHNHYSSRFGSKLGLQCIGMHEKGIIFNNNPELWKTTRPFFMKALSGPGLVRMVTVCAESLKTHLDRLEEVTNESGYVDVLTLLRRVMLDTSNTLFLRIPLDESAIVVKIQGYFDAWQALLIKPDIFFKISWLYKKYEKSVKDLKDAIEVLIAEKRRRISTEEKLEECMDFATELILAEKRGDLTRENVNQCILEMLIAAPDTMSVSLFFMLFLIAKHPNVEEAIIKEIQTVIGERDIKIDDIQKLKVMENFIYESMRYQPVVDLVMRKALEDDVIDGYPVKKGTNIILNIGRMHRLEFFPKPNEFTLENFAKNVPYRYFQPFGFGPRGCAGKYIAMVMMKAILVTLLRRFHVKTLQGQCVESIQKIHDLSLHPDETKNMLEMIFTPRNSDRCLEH
As to the kind of experiment: Cyp19/MFC high throughput aromatase inhibition kit. Type of assay: biochemical. How it is done:
The compounds of the formula (I′) have at least one asymmetric carbon atom, which is labelled “*”. A compound of the formula (I′) is to be understood as a compound having a specific configuration around the designated asymmetric carbon atom. If a synthesis method is used which leads to racemic compounds, the racemate resolution is carried out in accordance with conventional methods, such as via a chiral HPLC column. […] The aforementioned aromatase inhibitory activity can, as the skilled worker is well aware and as described below, be comfortably determined via the commercial Cyp19 enzyme inhibition kit (vide infra). In the abovementioned inhibition kit, compounds of the formula (I′) have an activity which is at least 10 times lower, preferably 20 times lower than the compounds of the formula (I′) with the opposite configuration around the asymmetric carbon atom labelled “*”.
The enzyme aromatese (CYP19) mediates the rate-limiting step of estrogen biosynthesis in human and rodent species. As estrogens control the sexual characteristics and reproduction as well as various structural and functional tissue features, compounds intended for the herein disclosed therapeutic use should at therapeutic dose levels show no or only minor interference with aromatase.
The concentration-dependent interference of the compounds with aromatase can be measured in vitro using a commercial Cyp19 enzyme inhibition kit and the manufacturer's instructions.
The Cyp19/methoxy-4-trifluoromethyl-coumarin (MFC) high throughput inhibition kit (Becton Dickinson Biosciences, San Jose, Calif., USA), for example, is designed to screen for potential inhibitors of Cyp19 catalytic activity in a 96-well format. The kit includes recombinant human Cyp19 enzyme in the form of supersomes, a fluorescent P450 substrate, an NADPH regenerating system, a reaction buffer and a stop reagent. MFC, the fluorogenic substrate is rapidly converted by Cyp19 supersomes to the highly fluorescent product 7-hydroxy-4-trifluoromethyl coumarin (7-HFC). The execution of the assay in the presence of various concentrations of inhibitor compounds ranging from 0.2 nanomolar to […] occurs according to the manufacturer's instructions. The concentration-dependent inhibition of aromatase activity can be quantified using the equation described above for the in vitro testing of aldosterone synthase inhibition in NCI-H295R cells to generate IC50 values (inhibitory concentration in mol/l yielding 50% of the maximal inhibition).

Assay [3] deals with T3, 11beta hydroxylase (CYP11B1) (Rattus norvegicus, UniProt P15393).
T3 construct: from tissue; host or cells: live Wistar rat (adrenal gland)
T3 sequence (P15393 25-499): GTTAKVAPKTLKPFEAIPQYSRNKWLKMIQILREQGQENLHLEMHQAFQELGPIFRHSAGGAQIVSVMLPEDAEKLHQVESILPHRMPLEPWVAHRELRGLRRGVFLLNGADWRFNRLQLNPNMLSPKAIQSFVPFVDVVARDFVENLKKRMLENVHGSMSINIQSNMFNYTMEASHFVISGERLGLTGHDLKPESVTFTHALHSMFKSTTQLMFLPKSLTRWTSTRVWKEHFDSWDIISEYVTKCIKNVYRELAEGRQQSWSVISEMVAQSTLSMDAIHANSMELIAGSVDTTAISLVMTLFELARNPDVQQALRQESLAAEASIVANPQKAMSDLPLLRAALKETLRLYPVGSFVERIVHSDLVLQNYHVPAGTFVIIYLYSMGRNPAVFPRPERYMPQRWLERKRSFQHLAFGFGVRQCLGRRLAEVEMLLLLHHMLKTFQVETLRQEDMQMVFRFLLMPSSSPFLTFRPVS
As to the kind of experiment: Suppression of plasma corticosterone levels in ACTH-stimulated rats. The class given is in vivo, Wistar rats. The note with it: 4 mg/kg p.o., 2 h after dosing vs 1 h before dosing. How it is done: as §1, with “experiment. On the second day of the experiment, the animals are divided into test groups of 5 animals and subjected to a first bleed 1 hour prior to the administration of test compound.” for “experiment.”
The selective suppression of plasma steroid levels as for instance aldosterone in comparison to corticosterone may serve as a measure for in vivo bioavailability and pharmacodynamic enzyme inhibitory activity of the herein described compounds. The evaluation of the data may occur relative to the application of vehicle or quantitatively by determination of the area under the curve (AUC). […]

The mark [4] stands for this setting: average of several measurements, read-out: IC50 value (aromatase inhibition).
Where [5] appears, read: enantiomers with differing aromatase inhibition, read-out: IC50 value (aromatase inhibition, enantiomers).

pIC50: −log10 of the molar value. Like-named read-outs stand apart in the source and are kept apart here.

In the case of `N#Cc1ccc2c(c1)COC21CCCn2cncc21` (centres unmarked) [Example 1, 6′,7′-Dihydro-3H,5′H-spiro[2-benzofuran-1,8′-imidazo[1,5-a]pyridine]-5-carbonitrile], the “Aldosterone levels (% change at 2 h)” value in assay [1] is recorded as −67.6%. Moreover, the pIC50 in assay [2] (setting [4]) was 7.19. For the same compound, in assay [3], the “Corticosterone levels (% change at 2 h)” value is given as −7.7%.

Take `N#Cc1ccc2c(c1)COC21CCn2cncc21` (single isomer, unassigned) [Example 23, (1S) or (1R)-5′,6′-Dihydro-3H-spiro[2-benzofuran-1,7′-pyrrolo[1,2-c]imidazole]-5-carbonitrile]: the pIC50 in assay [2] (setting [5]) was 6.04.

Take `N#Cc1ccc2c(c1)C1(CCCn3cncc31)OC2` (centres unmarked) [Example 4, 6′,7′-Dihydro-3H,5′H-spiro[2-benzofuran-1,8′-imidazo[1,5-a]pyridine]-6-carbonitrile]: the “Aldosterone levels (% change at 2 h)” value in assay [1] is −50.2%. Also, the negative-log IC50 (pIC50) in assay [2] (setting [4]) was 6.39. Further, the “Corticosterone levels (% change at 2 h)” value in assay [3] is reported as 0.9%.

Regarding `N#Cc1ccc2c(c1)COC21CCn2cncc21` (single isomer, unassigned) [antipode of 23], in assay [2] (setting [5]), the pIC50 is 7.50.

Broadly, the pIC50 is the IC50 on a negative log10 scale, so that one unit is a factor of ten.

These data come from patent publication US8324235B2, “Heterocyclic spiro-compounds” (Novartis AG, priority 2007, dated 2012).
